Laboratory results from paper PMC11990322, “Cholinium-Based Ionic Liquids Modulate Protein Stability: A Comparative Study of Enzymes and Albumins” (Molecules, 2025).

What was measured:
[1] = biological target: T1, lysozyme (Gallus gallus, UniProt P00698); assay: Trp fluorescence quenching, double-log plot; assay type: binding; conditions: 10 mM PBS, 1 mg/mL enzyme, excitation 295 nm
T1 construct: gene LYZ; docking model 6LYZ and six Trp agree
Source text: Trp fluorescence quenching, double-log plot on lysozyme

[2] = biological target: T2, α-chymotrypsin (Bos taurus, UniProt P00766); assay: Trp fluorescence quenching, double-log plot; assay type: binding; conditions: 10 mM PBS, 1 mg/mL enzyme, excitation 295 nm
T2 construct: docking model 1YPH agrees
Source text: Trp fluorescence quenching, double-log plot on α-chymotrypsin

T1 sequence (P00698 19-147): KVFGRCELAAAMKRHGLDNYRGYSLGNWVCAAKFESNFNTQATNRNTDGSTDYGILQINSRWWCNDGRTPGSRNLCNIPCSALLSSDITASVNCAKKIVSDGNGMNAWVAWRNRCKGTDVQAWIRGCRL

Kb/M^-1 a ([1]; n = 0.99, ion-pair salt titrated as ligand, ligand unfolds the tertiary structure) | Kb/M^-1 a ([2]; n = 1.40, ion-pair salt titrated as ligand, ligand perturbs the tertiary structure) | SMILES | Kb/M^-1 a ([1]; n = 1.15, ion-pair salt titrated as ligand) | Kb/M^-1 a ([2]; n = 1.19, ion-pair salt titrated as ligand)
 |  | C[N+](C)(C)CCO.O=C([O-])CCC(=O)O [[Ch][Suc]] | 31.64 ± 6.01 M⁻¹ | 30.95 ± 5.69 M⁻¹
73.84 ± 10.34 M⁻¹ | 280.6 ± 30.05 M⁻¹ | CC(C)[C@H](N)C(=O)O [[Ch][Val]] |  | 
